This is an account of results in US6566587B1, “Mutated 5-enolpyruvylshikimate-3-phosphate synthase, gene coding for said protein and transformed plants containing said gene” (priority 1995, dated 2003).

Test [1] concerns maize EPSPS mutant Ala101/Ile102 (Gly 101→Ala and Thr 102→Ile). In words: In vitro EPSP synthase activity, inhibition by glyphosate (phosphate liberated). Type of test: biochemical. As for the experimental part: (§1) 2.a: Extraction of EPSP synthase The different EPSP synthase genes are introduced in the form of an NcoI-HindIII cassette into the plasmid vector pTro99a (Pharmacia, ref: 27-5007-01) cut with NcoI and HindIII. Recombinant E. coli DH10B bacteria overexpressing the different EPSP synthases are sonicated in 40 ml of buffer per 10 g of pelleted cells, and washed with this same buffer (200 mM Tris-HCl pH 7.8, 50 mM mercaptoethanol, 5 mM EDTA and 1 mM PMSF), to which 1 g of polyvinylpyrrolidone is added. The suspension is stirred for 15 minutes at 4° C. and then centrifuged for 20 minutes at 27,000 g and 4° C.
(§2) Ammonium sulphate is added to the supernatant to bring the solution to 40% saturation with respect to ammonium sulphate. The mixture is centrifuged for 20 minutes at 27,000 g and 4° C. Ammonium sulphate is added to the new supernatant to bring the solution to 70% saturation with respect to ammonium sulphate. The mixture is centrifuged for 30 minutes at 27,000 g and 4° C. The EPSP synthase present in this protein pellet is taken up in 1 ml of buffer (20 mM Tris-HCl pH 7.8 and 50 mM mercaptoethanol). This solution is dialysed overnight against two liters of this same buffer at 4° C.
(§3) The activity of each enzyme, as well as its glyphosate resistance, is measured in vitro over 10 minutes at 37° C. in the following reaction mixture: 100 mM maleic acid pH 5.6, 1 mM phosphoenolpyruvate, 3 mM shikimate 3-phosphate (prepared according to Knowles P. R. and Sprinson D. B. 1970. Methods in Enzymol 17A, 351-352 from Aerobacter aerogenes strain ATCC 25597) and 10 mM potassium fluoride. The enzyme extract is added at the last moment after the addition of glyphosate, the final concentration of which varies from 0 to 20 mM.
(§4) The activity is measured by assaying the phosphate liberated according to the technique of Tausky H. A. and Shorr E. 1953. J. Biol. Chem. 202, 675-685.

The test system of test [2] is maize EPSPS mutant Ala. The description is as above. Type of test: biochemical. The protocol:
as §1, §2, §3, §4

Test [3] concerns maize EPSPS mutant Ser106 (Pro 106→Ser). Described as above. Format: biochemical. The conditions noted are these: glyphosate 0.12 mM; 10 minutes at 37° C., pH 5.6, 1 mM phosphoenolpyruvate. The protocol:
as §1, §2, §3, §4

The target in test [4] is T1, maize EPSPS mutant Ile102 (Thr 102→Ile) (Zea mays, UniProt O24566, T102I).
T1 sequence (O24566 1-444 T102I): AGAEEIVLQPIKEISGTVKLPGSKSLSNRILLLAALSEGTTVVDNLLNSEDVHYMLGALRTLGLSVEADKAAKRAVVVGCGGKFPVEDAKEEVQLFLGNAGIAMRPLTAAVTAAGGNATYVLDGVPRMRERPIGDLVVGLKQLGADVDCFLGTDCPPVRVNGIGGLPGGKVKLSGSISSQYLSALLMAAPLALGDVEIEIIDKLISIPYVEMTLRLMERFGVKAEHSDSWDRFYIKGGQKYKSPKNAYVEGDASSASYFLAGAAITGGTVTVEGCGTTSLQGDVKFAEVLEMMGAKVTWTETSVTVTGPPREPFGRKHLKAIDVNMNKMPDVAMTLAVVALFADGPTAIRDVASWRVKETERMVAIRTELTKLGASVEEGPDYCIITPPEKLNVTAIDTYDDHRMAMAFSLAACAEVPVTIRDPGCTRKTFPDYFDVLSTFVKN
Described as above. Format: biochemical. As to conditions: 10 minutes at 37° C., pH 5.6, 1 mM phosphoenolpyruvate. As for the experimental part:
as §1, §2, §3, §4

Test [5] has as its system wild-type (WT) maize EPSPS. Described as above. Format: biochemical. As to conditions: glyphosate 0.12 mM; 10 minutes at 37° C., pH 5.6, 1 mM phosphoenolpyruvate. As for the experimental part: as §1, §2, §3, §4
In test [6] the test system is maize EPSPS mutant Ile102/Ser106 (Thr 102→Ile and Pro 106→Ser). The description is as above. Format: biochemical. As for the experimental part: as §1, §2, §3, §4
Test [7] has as its system BMS (Black Mexican Sweet) maize cells bombarded with the construction pRPA-RD-130. In words: Selection of transformed maize cells on medium containing herbicide. Format: cell-based. The conditions noted are these: 2 mM in medium, 8 weeks of selection. The protocol:
(§5) BMS (Black Mexican Sweet) maize cells in an exponential growth phase are bombarded with the construction pRPA-RD-130 according to the principle and the protocol described by Klein et al. 1987 (Klein T. M., Wolf E. D., Wu R. and Sandford J. C. (1987): High velocity microprojectiles for delivering nucleic acids into living cells, NATURE Vol. 327 pp. 70-73).
(§6) Two days after bomardment, the cells are transferred to the same medium containing 2 mM N-(phosphonomethyl)glycine.

The subject of test [8] is BMS (Black Mexican Sweet) maize cells not bombarded. In words: Growth of maize cells on medium containing herbicide. As to conditions: 2 mM in medium. Format: cell-based. The protocol:
as §5, §6

The mark [9] stands for this setting: glyphosate concentrations up to 10 mM.

On to `O=C(O)CNCP(=O)(O)O` [glyphosate, N-(phosphonomethyl)glycine], for which the “inhibition of enzyme activity” value was “little or no inhibition” in test [1] (glyphosate 0.12 mM); “still not being inhibited” in test [1] (glyphosate 1.2 mM); “not inhibited” in test [1] (setting [9]); “still not being inhibited” in test [2] (glyphosate 1.2 mM); “not inhibited” in test [2] (setting [9]); 50% in test [3]. For the same compound, the “inhibition of enzyme activity” value in test [4] (glyphosate 0.12 mM) is recorded as “little or no inhibition”; in test [5], 85%; in test [6] (glyphosate 0.12 mM), “little or no inhibition”; in test [6] (glyphosate 1.2 mM), “still not being inhibited”; in test [6] (glyphosate 20 mM), “not reduced”. Also, the IC50 in test [4] (read-out: glyphosate concentration producing a 50% inhibition) worked out at 1200 µM. In test [7], the “callus development on selection medium” value is listed as “calluses which develop”. For the same compound, the “cell growth on medium containing herbicide” value in test [8] is “blocked by the herbicide and do not develop”.
